Experimental findings from PubChem BioAssay AID180 (DTP/NCI, 2004) are described below.

The structures appear in SMILES notation. Values joined by “and” are separate entries in the source; they are usually repeats but may differ in a detail not shown here. Equal values may be shown once.

The test concerns BDF1 mice, Adenocarcinoma 755 s.c., tumor weight T/C. The test is described as follows: NCI In Vivo Anticancer Drug Screen. Data for tumor model Adenocarcinoma 755 (subcutaneous) in B6D2F1 (BDF1) mice. To be noted: endpoint: mean tumor weight, higher = larger tumour. The gist of the method:
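Values express treated (T) relative to vehicle-dosed control (C) animals, based on survival or tumour size measured after compound treatment of mice bearing a transplanted tumour.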

[1] abbreviates: dose: 2.0 mg/kg/injection, schedule: Q01DX011 (ip), vehicle: carboxymethylcellulose (CMC).
[2] abbreviates: dose: 25.0 mg/kg/injection, schedule: Q01DX011 (ip), vehicle: methylcellulose (MC).
The mark [3] stands for this setting: dose: 30.0 mg/kg/injection, schedule: Q01DX011 (ip), vehicle: saline.
The mark [4] stands for this setting: dose: 60.0 mg/kg/injection, schedule: Q01DX011 (ip), vehicle: saline.
[5] abbreviates: dose: 120.0 mg/kg/injection, schedule: Q01DX011 (ip), vehicle: saline.

With `[Cl][Pt+2]([Cl])([Cl])[Cl].[Na+].[S-]c1ncnc2nc[nH]c12.[S-]c1ncnc2nc[nH]c12`, the T/C was 90 % of control (dose: 1.0 mg/kg/injection, schedule: Q01DX011 (ip), vehicle: carboxymethylcellulose (CMC)); 101 % of control (dose: 1.7 mg/kg/injection, schedule: Q01DX011 (ip), vehicle: carboxymethylcellulose (CMC)); 43 % of control under setting [1]; 31 % of control (dose: 3.5 mg/kg/injection, schedule: Q01DX011 (ip), vehicle: carboxymethylcellulose (CMC)); 5 % of control (dose: 4.0 mg/kg/injection, schedule: Q01DX011 (ip), vehicle: saline); 3 % of control and 6 % of control (dose: 7.0 mg/kg/injection, schedule: Q01DX011 (ip), vehicle: carboxymethylcellulose (CMC)). Further, the T/C was 4 % of control (dose: 8.0 mg/kg/injection, schedule: Q01DX011 (ip), vehicle: saline); 21 % of control (dose: 10.0 mg/kg/injection, schedule: Q01DX011 (ip), vehicle: carboxymethylcellulose (CMC)); 1 % of control and 2 % of control (dose: 14.0 mg/kg/injection, schedule: Q01DX011 (ip), vehicle: carboxymethylcellulose (CMC)); 1 % of control (dose: 20.0 mg/kg/injection, schedule: Q01DX011 (ip), vehicle: carboxymethylcellulose (CMC)); 5 % of control (dose: 28.0 mg/kg/injection, schedule: Q01DX011 (ip), vehicle: carboxymethylcellulose (CMC)); 1 % of control (dose: 32.0 mg/kg/injection, schedule: Q01DX011 (ip), vehicle: saline). Further, the T/C (dose: 43.8 mg/kg/injection, schedule: Q01DX011 (oral), vehicle: saline) was 96 % of control; the T/C (dose: 87.5 mg/kg/injection, schedule: Q01DX011 (oral), vehicle: saline) was 12 % of control; the T/C (dose: 175.0 mg/kg/injection, schedule: Q01DX011 (oral), vehicle: saline) was 7 % of control.

For `Cn1c(=O)c2[nH]c(COCc3nc4c([nH]3)c(=O)n(C)c(=O)n4C)nc2n(C)c1=O`, the T/C was 48 % of control under setting [2]; 65 % of control (dose: 75.0 mg/kg/injection, schedule: Q01DX011 (ip), vehicle: methylcellulose (MC)); 21 % of control (dose: 225.0 mg/kg/injection, schedule: Q01DX011 (ip), vehicle: methylcellulose (MC)).

On to `O/N=C1\CCCC\C1=N/O`, for which the T/C was 55 % of control (dose: 200.0 mg/kg/injection, schedule: Q01DX011 (ip), vehicle: other) and 4 % of control (dose: 300.0 mg/kg/injection, schedule: Q01DX011 (ip), vehicle: other).

Regarding `Cc1cc(Nc2ccccc2Br)nc(N)n1`, the T/C (dose: 15.0 mg/kg/injection, schedule: Q01DX011 (ip), vehicle: methylcellulose (MC)) was 65 % of control; the T/C (dose: 31.0 mg/kg/injection, schedule: Q01DX011 (ip), vehicle: methylcellulose (MC)) was 69 % of control; the T/C (dose: 62.0 mg/kg/injection, schedule: Q01DX011 (ip), vehicle: methylcellulose (MC)) was 112 % of control; the T/C (dose: 125.0 mg/kg/injection, schedule: Q01DX011 (ip), vehicle: methylcellulose (MC)) was 78 % of control; the T/C (dose: 250.0 mg/kg/injection, schedule: Q01DX011 (ip), vehicle: methylcellulose (MC)) is 76 % of control.

Take `CC1CCC(n2cnc3c([N+](C)(C)C)ncnc32)O1` (stereo unspecified): the T/C is, setting by setting: (dose: 15.0 mg/kg/injection, schedule: Q01DX011 (ip), vehicle: saline) 58 % of control; under setting [3], 35 % of control and 40 % of control; under setting [4], 5 % of control; under setting [5], 1 % of control.

Regarding `CCCCNS(=O)(=O)c1ncnc2nc[nH]c12`, the T/C is, setting by setting: under setting [1], 115 % of control; (dose: 6.0 mg/kg/injection, schedule: Q01DX011 (ip), vehicle: carboxymethylcellulose (CMC)) 44 % of control; (dose: 12.0 mg/kg/injection, schedule: Q01DX011 (ip), vehicle: carboxymethylcellulose (CMC)) 13 % of control.

As to `Nc1nc(SCc2ccccc2[N+](=O)[O-])c2[nH]cnc2n1`, the T/C reads like this: (dose: 3.7 mg/kg/injection, schedule: Q01DX011 (ip), vehicle: carboxymethylcellulose (CMC)) 95 % of control; (dose: 7.5 mg/kg/injection, schedule: Q01DX011 (ip), vehicle: carboxymethylcellulose (CMC)) 90 % of control; (dose: 15.0 mg/kg/injection, schedule: Q01DX011 (ip), vehicle: carboxymethylcellulose (CMC)) 68 % of control; (dose: 30.0 mg/kg/injection, schedule: Q01DX011 (ip), vehicle: carboxymethylcellulose (CMC)) 67 % of control; (dose: 37.5 mg/kg/injection, schedule: Q01DX011 (ip), vehicle: carboxymethylcellulose (CMC)) 2 % of control; (dose: 75.0 mg/kg/injection, schedule: Q01DX011 (ip), vehicle: carboxymethylcellulose (CMC)) 1 % of control. In addition, the T/C (dose: 300.0 mg/kg/injection, schedule: Q01DX011 (ip), vehicle: carboxymethylcellulose (CMC)) was 4 % of control.

Consider `Nc1nc(N)c2[nH]c(N=Nc3ccc(N(CCO)CCO)cc3)nc2n1`, for which the T/C (dose: 37.5 mg/kg/injection, schedule: Q01DX011 (ip), vehicle: saline) was 152 % of control and the T/C (dose: 150.0 mg/kg/injection, schedule: Q01DX011 (ip), vehicle: saline) is 65 % of control.

As for `CCN(CC)CCNc1ccc(C)c2sc3ccccc3c(=O)c12`, the T/C by setting is: (dose: 12.5 mg/kg/injection, schedule: Q01DX011 (ip), vehicle: methylcellulose (MC)) 73 % of control; (dose: 12.93 mg/kg/injection, schedule: Q01DX011 (ip), vehicle: carboxymethylcellulose (CMC)) 98 % of control; under setting [2], 51 % of control; (dose: 25.87 mg/kg/injection, schedule: Q01DX011 (ip), vehicle: carboxymethylcellulose (CMC)) 117 % of control; (dose: 25.88 mg/kg/injection, schedule: Q01DX011 (ip), vehicle: carboxymethylcellulose (CMC)) 73 % of control; (dose: 32.35 mg/kg/injection, schedule: Q01DX011 (ip), vehicle: carboxymethylcellulose (CMC)) 75 % of control. The T/C (dose: 43.13 mg/kg/injection, schedule: Q01DX011 (ip), vehicle: carboxymethylcellulose (CMC)) is 49 % of control; the T/C (dose: 50.0 mg/kg/injection, schedule: Q01DX011 (ip), vehicle: methylcellulose (MC)) was 35 % of control; the T/C (dose: 51.75 mg/kg/injection, schedule: Q01DX011 (ip), vehicle: carboxymethylcellulose (CMC)) is 44 % of control and 46 % of control and 59 % of control; the T/C (dose: 59.1 mg/kg/injection, schedule: Q01DX011 (ip), vehicle: carboxymethylcellulose (CMC)) is 15 % of control; the T/C (dose: 64.7 mg/kg/injection, schedule: Q01DX011 (ip), vehicle: carboxymethylcellulose (CMC)) is 23 % of control; the T/C (dose: 82.8 mg/kg/injection, schedule: Q01DX011 (ip), vehicle: carboxymethylcellulose (CMC)) was 7 % of control. In addition, the T/C reads like this: (dose: 100.0 mg/kg/injection, schedule: Q01DX011 (ip), vehicle: methylcellulose (MC)) 1 % of control; (dose: 103.5 mg/kg/injection, schedule: Q01DX011 (ip), vehicle: carboxymethylcellulose (CMC)) 5 % of control; (dose: 1617.5 micrograms/kg/injection, schedule: Q01DX011 (ip), vehicle: carboxymethylcellulose (CMC)) 70 % of control; (dose: 3235.0 micrograms/kg/injection, schedule: Q01DX011 (ip), vehicle: carboxymethylcellulose (CMC)) 38 % of control; (dose: 6470.0 micrograms/kg/injection, schedule: Q01DX011 (ip), vehicle: carboxymethylcellulose (CMC)) 15 % of control; (dose: 8087.0 micrograms/kg/injection, schedule: Q01DX011 (ip), vehicle: carboxymethylcellulose (CMC)) 72 % of control.

`Cn1cnc2c(F)ncnc21`: the T/C reads like this: (dose: 8.5 mg/kg/injection, schedule: Q01DX011 (ip), vehicle: carboxymethylcellulose (CMC)) 106 % of control; (dose: 17.0 mg/kg/injection, schedule: Q01DX011 (ip), vehicle: carboxymethylcellulose (CMC)) 96 % of control; (dose: 34.0 mg/kg/injection, schedule: Q01DX011 (ip), vehicle: carboxymethylcellulose (CMC)) 85 % of control; (dose: 68.0 mg/kg/injection, schedule: Q01DX011 (ip), vehicle: carboxymethylcellulose (CMC)) 84 % of control.

On to `CN1CCN(CCCN2c3ccccc3Sc3ccc(C(F)(F)F)cc32)CC1`, for which the T/C (dose: 22.0 mg/kg/injection, schedule: Q01DX011 (ip), vehicle: saline) was 32 % of control.

Consider `CCCCCCn1cnc2c(=S)nc[nH]c21`, for which the T/C is, setting by setting: (dose: 63.0 mg/kg/injection, schedule: Q01DX011 (ip), vehicle: carboxymethylcellulose (CMC)) 50 % of control; (dose: 500.0 mg/kg/injection, schedule: Q01DX011 (ip), vehicle: carboxymethylcellulose (CMC)) 5 % of control and 13 % of control.

With `C[N+](C)(C)c1nc(N)nc2c1ncn2C1OC(CO)C(O)C1O` (stereo unspecified), the T/C by setting is: under setting [3], 114 % of control; under setting [4], 101 % of control; under setting [5], 52 % of control; (dose: 240.0 mg/kg/injection, schedule: Q01DX011 (ip), vehicle: saline) 24 % of control; (dose: 400.0 mg/kg/injection, schedule: Q01DX011 (ip), vehicle: saline) 3 % of control.
